According to patent US12343346B2, “Salts and solid forms of (S)-3-(4-((4-(morpholinomethyl)benzyl)oxy)-1-oxoisoindolin-2-yl)piperidine-2,6-dione and compositions comprising and methods of using the same” (Celgene Corporation, priority 2012, dated 2025):
“Also recorded” adds a separate entry of the source. Structures can show the parent of a compound that is named as a salt. Where two headings read alike, the source gives them in different places.

Legend:
[1] = Stability and form transfer experiments of HCl salt forms (XRPD result); format: physicochemical
Procedure: (§1) All of the solid samples generated in the polymorph screen were analyzed by XRPD. XRPD analysis was conducted on a PANalytical Empyrean or a Thermo ARL X'TRA X-ray powder diffractometer using Cu Kα radiation at 1.54 Å.
Further form conversion experiments were performed to determine interconversion among solid forms. Form conversion was also observed during further characterization of the solid forms.

[2] = Competitive slurry / Form E and Form F transformation; format: physicochemical
[3] = Equilibration (slurry) of Form A at room temperature and 50° C., form by XRPD; format: physicochemical
Procedure: Equilibration and evaporation experiments were carried out by adding an excess of the HCl salt to up to 2 mL of a test solvent. The resulting mixture was agitated for at least 24 hours at room temperature and 50° C. separately. Upon reaching equilibrium, the saturated supernatant solution was removed, filtered using 0.45 μm PTFE filters and allowed to evaporate in an open vial under nitrogen at room temperature and 50° C., respectively. The solid resulting from the equilibration was isolated and air-dried before analysis.
as §1

[4] = Dynamic vapor sorption (DVS) moisture sorption/desorption; format: physicochemical
Procedure: Hygroscopicity was determined on a Surface Measurement Systems DVS. […] The relative humidity was increased from 0% to 90% RH at 10% RH step, then at 95% RH. The relative humidity was then decreased in a similar manner to accomplish a full adsorption/desorption cycle. For hydrated forms, the analysis started at 50% RH and increased to 90% RH at 10% RH step. The relative humidity was then decreased in a similar manner to 0% RH followed by increasing to 50% RH.

[5] = Compression test (2000-psi); format: physicochemical; settings: 2000-psi pressure for about 1 minute
Procedure: The stability of Form A was further characterized by compression test and form transfer experiments. Upon application of 2000-psi pressure for about 1 minute, the material was still Form A (FIG. 43).

[6] = Heating of solid form followed by XRPD; format: physicochemical
Procedure: Form C was obtained from anti-solvent recrystallization in DMSO/n-BuOH, DMSO/MTBE or DMSO/BuOAc. DSC and TGA thermograms of Form C are shown in FIG. 52 and FIG. 53, respectively. The TGA weight loss of 1.6 and 15.1 wt % corresponded to broad DSC endotherm around 50° C. and endotherms around 142-146° C., respectively, and can be attributed to loss of solvent/water in Form C. The DSC thermogram with an onset temperature of 251.8° C. was due to final melt/decomposition. […] The ^1H-NMR spectrum of Form C was consistent with Compound I structure with approximately one molar equivalent (or ˜13.9 wt %) of DMSO solvent (FIG. 55). Without being limited by any particular theory, Form C is a DMSO solvate. […]

O=C1CCC(N2Cc3c(OCc4ccc(CN5CCOCC5)cc4)cccc3C2=O)C(=O)N1 (racemic) [racemic Compound (I) hydrochloride methanol solvate]
Form conversion upon exposure to ambient moisture [1]: converted to racemic Compound (I) hydrochloride hydrate | Form conversion upon exposure to ambient moisture ([1]; listed as MeOH solvate of HCl salt of racemic Compound (I)): converts to a hydrate of HCl salt of racemic Compound (I)

Cl.O=C1CC[C@H](N2Cc3c(OCc4ccc(CN5CCOCC5)cc4)cccc3C2=O)C(=O)N1 [Form A + F]
XRPD Result ([2]; IPA/water (50/50), 3 days at RT): Form A | XRPD Result ([2]; IPA/water (65/35), 3 days at RT): Form A | XRPD Result ([2]; IPA/water (80/20), 6 days at RT): Form A | XRPD Result ([2]; IPA/water (95/5), 6 days at RT): Form A | XRPD Result ([2]; MeOAc saturated with water, 3 days at RT): Form A | XRPD Result ([2]; Water, 3 days at RT): Form A

Cl.O=C1CC[C@H](N2Cc3c(OCc4ccc(CN5CCOCC5)cc4)cccc3C2=O)C(=O)N1 [Form A]
Form by XRPD after equilibration ([3]; MeCN/H2O (95:5), RT): Form D | Form by XRPD after slurry ([3]; non-aqueous solvents, 24 h of slurry): Form A | Hygroscopicity (in words, from DVS) [4]: slightly hygroscopic | XRPD Result after DVS (adsorption/desorption cycles) [4]: remains as the Form A crystal; also recorded: no change | DVS or other comments: water uptake ([4]; from 0 to 90% RH): 1.8 wt % water uptake | Relative stability of forms (in words) ([2]; water and aqueous/organic (aqueous/IPA) mixtures, competitive slurry): more stable than hydrate forms | Approximate Solubility (Acetone, room temperature): <1000 µg/mL | Approximate Solubility (CH2Cl2, room temperature): <1000 µg/mL | Approximate Solubility (CH3CN, room temperature): <1000 µg/mL | Approximate Solubility (CH3CN/H2O (1:1), room temperature): >50000 µg/mL | Approximate Solubility (DMSO, room temperature): >50000 µg/mL | Approximate Solubility (EtOAc, room temperature): <1000 µg/mL | Approximate Solubility (EtOH, room temperature): ~1000 µg/mL | Approximate Solubility (EtOH/H2O (1:1), room temperature): >50000 µg/mL | Approximate Solubility (H2O, room temperature): >50000 µg/mL | Approximate Solubility (Heptane, room temperature): <1000 µg/mL | Approximate Solubility (IPA, room temperature): ~1000 µg/mL | Approximate Solubility (MEK, room temperature): <1000 µg/mL | Approximate Solubility (MTBE, room temperature): <1000 µg/mL | Approximate Solubility (MeOAc, room temperature): <1000 µg/mL | Approximate Solubility (MeOH, room temperature): ~10000 µg/mL | Approximate Solubility (THF, room temperature): <1000 µg/mL | Approximate Solubility (THF/H2O (1:1), room temperature): >50000 µg/mL | Approximate Solubility (Toluene, room temperature): <1000 µg/mL | Solubility (most soluble) (in MeCN/water (1:1), EtOH/water (1:1), THE/water (1:1), and water): greater than 50 mg/mL | Solubility (in words) (in MeOH): moderate solubility | Solubility (low or very low) (in acetone, MeCN, n-BuOH, EtOH, IPA, EtOAc, MEK, DCM, MTBE, heptane, MeOAc, toluene and THF): ≤ 1000 µg/mL | Approximate Solubility (n-BuOH, room temperature): <1000 µg/mL | Form after compression [5]: remains as the Form A crystal form; also recorded: still Form A

Cl.O=C1CC[C@H](N2Cc3c(OCc4ccc(CN5CCOCC5)cc4)cccc3C2=O)C(=O)N1 [Form B]
XRPD Result after DVS (adsorption/desorption cycles) [4]: Form A | XRPD Result ([1]; Exposed to ambient air, 1 week at RT): Form A | XRPD Result ([1]; IPA, 24 h at RT): Form A | Form conversion during exposure to ambient / ambient storage [1]: converts to the Form A crystal form; also recorded: converted to Form A | Form conversion during exposure to ambient / ambient storage ([1]; listed as B): Converts to Form A

Cl.O=C1CC[C@H](N2Cc3c(OCc4ccc(CN5CCOCC5)cc4)cccc3C2=O)C(=O)N1 [Form C]
XRPD pattern after heating ([6]; heated to 165° C.): converts to the Form A crystal form; also recorded: consistent with Form A | XRPD Result after DVS (adsorption/desorption cycles) [4]: Form A | Form conversion upon exposure to high humidity ([4]; higher than 70% RH in the DVS instrument): converts to the Form A crystal form; also recorded: convert to Form A | Form conversion in IPA slurry [1]: convert to Form A | XRPD Result ([1]; IPA, 24 h at RT): Form A | XRPD Result ([1]; MeOAc, 1 day at RT): Form A

Cl.O=C1CC[C@H](N2Cc3c(OCc4ccc(CN5CCOCC5)cc4)cccc3C2=O)C(=O)N1 [Form E]
XRPD pattern after heating ([6]; heated to 120° C.): remains as the Form E crystal form; also recorded: consistent with Form E | XRPD pattern after heating ([6]; heated to 190° C.): converts to an amorphous form; also recorded: amorphous pattern | Hygroscopicity (in words, from DVS) [4]: hygroscopic | XRPD Result after DVS (adsorption/desorption cycles) [4]: converts to the Form F crystal form; also recorded: partially converted to Form F | DVS or other comments: form conversion ([4]; during DVS experiment): Converts to Form F | XRPD Result ([2]; IPA/water (40/60), Spontaneous, RT): Form F | XRPD Result ([2]; IPA/water (60/40), Spontaneous, RT): Form F | XRPD Result ([2]; IPA/water (80/20), Spontaneous, RT): Form F | XRPD Result ([2]; IPA/water (90/10), Spontaneous, RT): Form F | XRPD Result ([2]; IPA/water (95/5), Spontaneous, RT): Form F | Form conversion in IPA/water mixtures ([2]; various IPA/water mixtures): convert to Form F | Form conversion in IPA slurry [1]: converted to Form A | XRPD Result ([1]; IPA, 24 h at RT): Form A

Cl.O=C1CC[C@H](N2Cc3c(OCc4ccc(CN5CCOCC5)cc4)cccc3C2=O)C(=O)N1 [Form I]
XRPD Result ([1]; MeOAc, 1 minute at RT): Form A | Form conversion upon exposure to ambient humidity / ambient condition ([1]; listed as I): Converts to Form A | XRPD pattern after washing with MeOAc ([1]; washed with MeOAc): converts to the Form A crystal; also recorded: consistent with Form A

Cl.O=C1CC[C@H](N2Cc3c(OCc4ccc(CN5CCOCC5)cc4)cccc3C2=O)C(=O)N1 [Form K]
Form conversion upon exposure to ambient humidity / ambient condition [1]: converts to the Form F crystal; also recorded: convert to Form F | Form conversion upon exposure to ambient humidity / ambient condition ([1]; listed as K): Converts to Form F
